The structures appear in SMILES notation.

Experiment in all cases: Kinase panel (Cerep)
Assay type in all cases: biochemical

One test deals with T1, NEK2 (h) (Homo sapiens, UniProt P51955).
T1 construct: purchased Eurofins Cerep
The conditions noted are these: read-out: % inhibition at 10 µM by MC3353, NEK2 (h), ATP 10 μM. The method, then: (§1) The test compound, reference compound or water (control) were mixed with the enzyme (for the exact amount see table below) in the appropriate buffer. Thereafter, the reaction was initiated by adding the required amount of the appropriate substrate and of ATP, and the mixture is incubated at room temperature (variable reaction time, see table below). For control basal measurements, the enzyme was omitted from the reaction mixture. Following incubation, the reaction was stopped by adding 13 mM EDTA. After 5 min, the proper antibody labelled with europium chelate was added. After 60 more min, the fluorescence transfer was measured at λex=337 nm, λem=620 nm and λem=665 nm using a microplate reader (Envision, Perkin Elmer). The enzyme activity was determined by dividing the signal measured at 665 nm by that measured at 620 nm (ratio). The results are expressed as a percent inhibition of the control enzyme activity.

For the next test, the target named is T2, JNK1 (h) (Homo sapiens, UniProt P45983).
T2 construct: purchased Eurofins Cerep
As to conditions: read-out: % inhibition at 10 µM by MC3353, JNK1 (h), ATP 10 μM. The method, then: as §1

The next test has as its target T3, c-Met kinase (h) (Homo sapiens, UniProt P08581).
T3 construct: purchased Eurofins Cerep
As to conditions: read-out: % inhibition at 10 µM by MC3353, c-Met kinase (h), ATP 10 μM. The method, then: as §1

Another test concerns the target T4, ERK2 (h) (P42mapk) (Homo sapiens, UniProt P28482).
T4 construct: purchased Eurofins Cerep
As to conditions: read-out: % inhibition at 10 µM by MC3353, ERK2 (h) (P42mapk), ATP 10 μM. On the procedure: as §1

For a further test, the target named is T5, AurA/Aur2 kinase (h) (Homo sapiens, UniProt O14965).
T5 construct: purchased Eurofins Cerep
As to conditions: read-out: % inhibition at 10 µM by MC3353, AurA/Aur2 kinase (h), ATP 10 μM. The method, then:
as §1

A further test addresses T6, FGFR2 kinase (h) (Homo sapiens, UniProt P21802).
T6 construct: purchased Eurofins Cerep
As to conditions: read-out: % inhibition at 10 µM by MC3353, FGFR2 kinase (h), ATP 10 μM. On the procedure:
as §1

The target of a further test is T7, p38alpha kinase (h) (Homo sapiens, UniProt Q16539).
T7 construct: purchased Eurofins Cerep
The conditions noted are these: read-out: % inhibition at 10 µM by MC3353, p38alpha kinase (h), ATP 100 μM. On the procedure:
as §1

In the next test the target is T8, EGFR kinase (h) (Homo sapiens, UniProt P00533).
T8 construct: purchased Eurofins Cerep
The conditions noted are these: read-out: % inhibition at 10 µM by MC3353, EGFR kinase (h), ATP 10 μM. The method, then: as §1

The next test has as its target T9, ROCK1 (h) (Homo sapiens, UniProt Q13464).
T9 construct: purchased Eurofins Cerep
The conditions noted are these: read-out: % inhibition at 10 µM by MC3353, ROCK1 (h), ATP 1 μM. The method, then:
as §1

Another test addresses T10, Lck kinase (h) (Homo sapiens, UniProt P06239).
T10 construct: purchased Eurofins Cerep
As to conditions: read-out: % inhibition at 10 µM by MC3353, Lck kinase (h), ATP 10 μM. On the procedure: as §1

For the next test, the target named is T11, PKCbeta 2 (h) (Homo sapiens, UniProt P05771).
T11 construct: purchased Eurofins Cerep
As to conditions: read-out: % inhibition at 10 µM by MC3353, PKCbeta 2 (h), ATP 30 μM. The method, then:
as §1

Another test concerns the target T12, PAK4 (h) (Homo sapiens, UniProt O96013).
T12 construct: purchased Eurofins Cerep
As to conditions: read-out: % inhibition at 10 µM by MC3353, PAK4 (h), ATP 1 μM. The method, then:
as §1

The target in a further test is T13, GSK3beta (h) (Homo sapiens, UniProt P49841).
T13 construct: purchased Eurofins Cerep
The conditions noted are these: read-out: % inhibition at 10 µM by MC3353, GSK3beta (h), ATP 10 μM. The method, then:
as §1

For the next test, the target named is T14, CHK1 (h) (Homo sapiens, UniProt O14757).
T14 construct: purchased Eurofins Cerep
The conditions noted are these: read-out: % inhibition at 10 µM by MC3353, CHK1 (h), ATP 30 μM. The method, then:
as §1

The target in a further test is T15, RAF-1 kinase (h) (Homo sapiens, UniProt P04049).
T15 construct: purchased Eurofins Cerep
The conditions noted are these: read-out: % inhibition at 10 µM by MC3353, RAF-1 kinase (h), ATP 10 μM. On the procedure: as §1

The target of a further test is T16, MNK2 (h) (Homo sapiens, UniProt Q9HBH9).
T16 construct: purchased Eurofins Cerep
As to conditions: read-out: % inhibition at 10 µM by MC3353, MNK2 (h), ATP 100 μM. The method, then: as §1

The target of another test is T17, CaMK2alpha (h) (Homo sapiens, UniProt Q9UQM7).
T17 construct: purchased Eurofins Cerep
The conditions noted are these: read-out: % inhibition at 10 µM by MC3353, CaMK2alpha (h), ATP 10 μM. The method, then: as §1

The target in the next test is T18, IKKalpha (h) (Homo sapiens, UniProt O15111).
T18 construct: purchased Eurofins Cerep
The conditions noted are these: read-out: % inhibition at 10 µM by MC3353, IKKalpha (h), ATP 5 μM. The method, then: as §1

The next test concerns the target T19, IRK (h) (InsR) (Homo sapiens, UniProt P06213).
T19 construct: purchased Eurofins Cerep
The conditions noted are these: read-out: % inhibition at 10 µM by MC3353, IRK (h) (InsR), ATP 30 μM. On the procedure:
as §1

The next test has as its target T20, FGFR1 kinase (h) (Homo sapiens, UniProt P11362).
T20 construct: purchased Eurofins Cerep
The conditions noted are these: read-out: % inhibition at 10 µM by MC3353, FGFR1 kinase (h), ATP 100 μM. The method, then: as §1

The target in a further test is T21, PKA (h) (Homo sapiens, UniProt P17612).
T21 construct: purchased Eurofins Cerep
As to conditions: read-out: % inhibition at 10 µM by MC3353, PKA (h), ATP 1 μM. On the procedure:
as §1

The next test addresses T22, SGK1 (h) (Homo sapiens, UniProt O00141).
T22 construct: purchased Eurofins Cerep
As to conditions: read-out: % inhibition at 10 µM by MC3353, SGK1 (h), ATP 10 μM. On the procedure: as §1

The next test has as its target T23, SIK (h) (Homo sapiens, UniProt P57059).
T23 construct: purchased Eurofins Cerep
As to conditions: read-out: % inhibition at 10 µM by MC3353, SIK (h), ATP 30 μM. The method, then:
as §1

T18 sequence (O15111 whole entry): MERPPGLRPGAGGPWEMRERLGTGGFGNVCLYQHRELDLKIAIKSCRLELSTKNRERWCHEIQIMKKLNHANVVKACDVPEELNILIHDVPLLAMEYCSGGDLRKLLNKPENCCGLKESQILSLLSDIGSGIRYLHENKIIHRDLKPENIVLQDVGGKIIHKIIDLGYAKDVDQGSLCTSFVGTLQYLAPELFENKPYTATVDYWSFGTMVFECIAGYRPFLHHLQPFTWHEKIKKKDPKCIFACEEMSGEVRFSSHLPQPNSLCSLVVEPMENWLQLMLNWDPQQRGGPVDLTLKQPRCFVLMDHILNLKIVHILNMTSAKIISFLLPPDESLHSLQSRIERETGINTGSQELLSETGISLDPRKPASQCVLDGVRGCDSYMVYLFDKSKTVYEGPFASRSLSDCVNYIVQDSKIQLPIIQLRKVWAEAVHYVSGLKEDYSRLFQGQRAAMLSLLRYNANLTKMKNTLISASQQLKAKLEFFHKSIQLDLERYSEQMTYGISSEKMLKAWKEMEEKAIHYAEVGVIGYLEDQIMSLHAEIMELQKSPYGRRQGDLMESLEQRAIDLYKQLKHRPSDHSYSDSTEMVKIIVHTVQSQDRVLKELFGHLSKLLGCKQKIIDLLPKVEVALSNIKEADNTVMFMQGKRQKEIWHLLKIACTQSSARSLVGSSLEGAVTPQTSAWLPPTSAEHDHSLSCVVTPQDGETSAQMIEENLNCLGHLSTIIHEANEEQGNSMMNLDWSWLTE
T1 sequence (P51955 whole entry): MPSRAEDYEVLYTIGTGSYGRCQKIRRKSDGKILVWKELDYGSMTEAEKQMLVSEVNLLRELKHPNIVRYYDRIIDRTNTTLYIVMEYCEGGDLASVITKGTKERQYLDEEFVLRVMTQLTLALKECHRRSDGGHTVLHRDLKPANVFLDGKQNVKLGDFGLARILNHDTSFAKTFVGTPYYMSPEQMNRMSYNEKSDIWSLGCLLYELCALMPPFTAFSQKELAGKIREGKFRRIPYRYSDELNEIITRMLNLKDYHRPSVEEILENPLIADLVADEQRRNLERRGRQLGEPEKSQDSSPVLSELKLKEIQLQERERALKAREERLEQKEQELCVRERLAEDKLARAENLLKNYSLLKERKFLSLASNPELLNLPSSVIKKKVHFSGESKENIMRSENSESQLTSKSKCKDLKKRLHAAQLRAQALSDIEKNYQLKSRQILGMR
T13 sequence (P49841 whole entry): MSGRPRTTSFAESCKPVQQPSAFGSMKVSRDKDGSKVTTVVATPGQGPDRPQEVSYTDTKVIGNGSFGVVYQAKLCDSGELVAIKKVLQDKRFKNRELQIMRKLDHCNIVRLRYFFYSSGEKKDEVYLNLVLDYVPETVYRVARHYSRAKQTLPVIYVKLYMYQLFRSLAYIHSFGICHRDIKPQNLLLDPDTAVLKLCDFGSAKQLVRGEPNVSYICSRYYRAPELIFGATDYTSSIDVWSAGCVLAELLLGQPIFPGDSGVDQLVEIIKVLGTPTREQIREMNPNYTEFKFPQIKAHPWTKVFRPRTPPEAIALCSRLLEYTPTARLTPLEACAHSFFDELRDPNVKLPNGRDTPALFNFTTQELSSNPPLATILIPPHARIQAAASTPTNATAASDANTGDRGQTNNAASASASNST
T15 sequence (P04049 whole entry): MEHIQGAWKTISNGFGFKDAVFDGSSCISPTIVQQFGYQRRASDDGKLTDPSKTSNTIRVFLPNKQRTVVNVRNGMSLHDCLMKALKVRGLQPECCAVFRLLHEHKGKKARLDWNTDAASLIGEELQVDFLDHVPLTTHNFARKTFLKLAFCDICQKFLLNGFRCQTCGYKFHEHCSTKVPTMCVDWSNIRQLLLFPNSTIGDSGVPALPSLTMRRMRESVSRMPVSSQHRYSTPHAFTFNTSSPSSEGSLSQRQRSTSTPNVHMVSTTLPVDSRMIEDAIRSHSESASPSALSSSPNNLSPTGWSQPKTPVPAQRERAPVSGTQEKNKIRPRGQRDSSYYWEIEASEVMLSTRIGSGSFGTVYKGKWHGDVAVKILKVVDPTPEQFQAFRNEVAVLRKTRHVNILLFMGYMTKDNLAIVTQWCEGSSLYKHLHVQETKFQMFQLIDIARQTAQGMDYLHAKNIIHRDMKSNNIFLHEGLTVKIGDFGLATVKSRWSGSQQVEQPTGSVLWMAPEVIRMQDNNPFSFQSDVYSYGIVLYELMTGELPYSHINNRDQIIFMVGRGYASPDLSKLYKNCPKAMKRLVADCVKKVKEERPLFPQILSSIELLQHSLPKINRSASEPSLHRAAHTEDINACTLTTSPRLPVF
T9 sequence (Q13464 whole entry): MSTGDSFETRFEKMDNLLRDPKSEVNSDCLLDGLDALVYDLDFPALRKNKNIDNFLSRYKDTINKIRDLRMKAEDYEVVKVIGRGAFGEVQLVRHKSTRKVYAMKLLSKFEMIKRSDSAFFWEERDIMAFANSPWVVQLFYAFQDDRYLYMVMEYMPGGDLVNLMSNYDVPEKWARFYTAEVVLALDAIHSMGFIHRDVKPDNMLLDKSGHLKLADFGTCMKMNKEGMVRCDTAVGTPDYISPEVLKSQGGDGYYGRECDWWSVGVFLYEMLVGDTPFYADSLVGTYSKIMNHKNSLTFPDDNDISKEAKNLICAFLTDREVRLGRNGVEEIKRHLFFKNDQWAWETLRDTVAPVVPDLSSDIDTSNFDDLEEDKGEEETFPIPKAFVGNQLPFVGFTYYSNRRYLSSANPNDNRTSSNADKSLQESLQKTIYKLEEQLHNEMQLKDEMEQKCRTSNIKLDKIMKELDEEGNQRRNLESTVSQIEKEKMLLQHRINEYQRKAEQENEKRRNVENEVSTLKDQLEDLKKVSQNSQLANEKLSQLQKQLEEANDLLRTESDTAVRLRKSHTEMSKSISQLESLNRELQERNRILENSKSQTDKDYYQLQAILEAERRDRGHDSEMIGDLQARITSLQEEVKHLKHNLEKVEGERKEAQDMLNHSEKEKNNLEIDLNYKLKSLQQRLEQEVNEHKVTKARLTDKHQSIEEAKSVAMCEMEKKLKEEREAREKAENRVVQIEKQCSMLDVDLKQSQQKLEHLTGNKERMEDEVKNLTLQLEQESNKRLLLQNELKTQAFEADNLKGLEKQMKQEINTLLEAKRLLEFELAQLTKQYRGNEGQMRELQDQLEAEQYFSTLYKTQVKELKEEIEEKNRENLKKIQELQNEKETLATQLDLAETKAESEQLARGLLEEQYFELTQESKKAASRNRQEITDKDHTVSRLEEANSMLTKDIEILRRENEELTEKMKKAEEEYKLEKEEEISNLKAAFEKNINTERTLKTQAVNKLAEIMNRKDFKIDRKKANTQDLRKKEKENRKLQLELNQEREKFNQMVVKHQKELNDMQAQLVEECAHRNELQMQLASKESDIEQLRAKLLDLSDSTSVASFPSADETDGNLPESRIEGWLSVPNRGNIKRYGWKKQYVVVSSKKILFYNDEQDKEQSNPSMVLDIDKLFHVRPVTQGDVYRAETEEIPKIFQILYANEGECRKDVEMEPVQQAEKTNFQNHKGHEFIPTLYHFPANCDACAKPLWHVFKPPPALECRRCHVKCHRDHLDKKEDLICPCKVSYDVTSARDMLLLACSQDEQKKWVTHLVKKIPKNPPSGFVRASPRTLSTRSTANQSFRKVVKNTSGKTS
T3 sequence (P08581 25-1390): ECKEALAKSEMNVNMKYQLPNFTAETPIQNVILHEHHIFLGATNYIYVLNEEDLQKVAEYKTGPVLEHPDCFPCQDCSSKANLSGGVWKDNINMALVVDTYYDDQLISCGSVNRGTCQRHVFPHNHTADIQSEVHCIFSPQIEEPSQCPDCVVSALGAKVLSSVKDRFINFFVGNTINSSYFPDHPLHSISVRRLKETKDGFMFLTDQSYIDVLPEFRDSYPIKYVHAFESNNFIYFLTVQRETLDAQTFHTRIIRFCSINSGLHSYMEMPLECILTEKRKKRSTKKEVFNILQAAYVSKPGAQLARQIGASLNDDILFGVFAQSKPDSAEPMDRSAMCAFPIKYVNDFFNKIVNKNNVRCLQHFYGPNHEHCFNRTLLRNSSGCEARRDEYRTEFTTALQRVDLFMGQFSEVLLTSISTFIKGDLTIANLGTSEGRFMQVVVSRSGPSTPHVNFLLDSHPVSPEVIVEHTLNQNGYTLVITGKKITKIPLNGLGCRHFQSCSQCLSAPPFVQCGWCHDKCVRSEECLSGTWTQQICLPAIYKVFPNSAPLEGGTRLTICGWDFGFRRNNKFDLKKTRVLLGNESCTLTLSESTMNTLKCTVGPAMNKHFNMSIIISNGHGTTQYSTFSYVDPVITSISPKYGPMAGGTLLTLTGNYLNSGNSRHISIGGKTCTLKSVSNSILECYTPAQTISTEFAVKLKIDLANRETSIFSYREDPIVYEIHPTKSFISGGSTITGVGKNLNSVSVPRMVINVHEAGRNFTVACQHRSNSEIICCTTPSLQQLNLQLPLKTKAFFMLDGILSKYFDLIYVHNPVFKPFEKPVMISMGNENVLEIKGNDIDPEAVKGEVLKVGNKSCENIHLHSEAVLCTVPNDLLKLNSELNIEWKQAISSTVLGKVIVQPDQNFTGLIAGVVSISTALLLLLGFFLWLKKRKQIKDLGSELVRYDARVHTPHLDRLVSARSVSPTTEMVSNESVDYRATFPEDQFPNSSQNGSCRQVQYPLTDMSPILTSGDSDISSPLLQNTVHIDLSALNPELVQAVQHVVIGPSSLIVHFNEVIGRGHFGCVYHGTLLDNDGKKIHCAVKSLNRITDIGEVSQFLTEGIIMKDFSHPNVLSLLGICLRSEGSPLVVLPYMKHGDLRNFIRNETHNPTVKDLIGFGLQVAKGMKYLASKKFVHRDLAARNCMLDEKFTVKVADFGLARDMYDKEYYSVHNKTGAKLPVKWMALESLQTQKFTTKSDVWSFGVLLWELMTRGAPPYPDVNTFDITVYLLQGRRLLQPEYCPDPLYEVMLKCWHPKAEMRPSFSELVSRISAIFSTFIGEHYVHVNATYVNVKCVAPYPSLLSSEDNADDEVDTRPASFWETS

As for `O=C(Nc1ccc(NC(=O)c2ccc(Nc3ccnc4ccccc34)cc2)cc1)OCc1ccccc1` [MC3353, Benzyl (4-(4-(quinolin-4-ylamino)benzamido)phenyl)carbamate], the inhibition at 10 µM was -9% at NEK2 (h); -32% at JNK1 (h); -116% on c-Met kinase (h); -21% at ERK2 (h) (P42mapk); 4% on AurA/Aur2 kinase (h); 19% on FGFR2 kinase (h). For the same compound, the inhibition at 10 µM on p38alpha kinase (h) was -58%; at EGFR kinase (h), 5%; on ROCK1 (h) it was -51%; on Lck kinase (h), 4%; at PKCbeta 2 (h), 11%; on PAK4 (h) it was -4%. For the same compound, the inhibition at 10 µM at GSK3beta (h) was -29%; on CHK1 (h) it was 7%; on RAF-1 kinase (h) it was 60%; at MNK2 (h) it was 21%; at CaMK2alpha (h) it was -22%; on IKKalpha (h), 18%. Moreover, the inhibition at 10 µM on IRK (h) (InsR) was 38%; on FGFR1 kinase (h) it was -200%; at PKA (h), 27%; on SGK1 (h), 29%; at SIK (h) it was 33%.

These data come from publication PMC6501426 (Clinical Epigenetics, 2019).
